From patent US9439915B2, “Activated nitric oxide donors and methods of making and using thereof” (University of Utah Research Foundation, priority 2008, dated 2016)

Tests used:
[1] = Dialysis retention of JS-K (loading in micelles); format: physicochemical; details: 2 hours of dialysis; JS-K levels by HPLC; JS-K to polymer 10% by weight
Procedure: This example illustrates the extent of JS-K loading in micelles. JS-K was loaded in Pluronic® P123 and L121 polymers to form micelles. The proportion of JS-K to Pluronic® polymer in solution was 10% by weight. The JS-K micelle preparations were then dialyzed for 2 hours. A parallel experiment following the same procedures with free JS-K was set up as a control. After 2 hours of dialysis, JS-K levels were measured by HPLC to estimate the percent of JS-K retained.

[2] = tested on: HL-60 cells; assay: In vitro cytotoxicity, MTS assay; format: cell-based
Procedure: The in vitro cytotoxicity of JS-K in Pluronic® micelles was studied in this example. JS-K was loaded in F68, P105, or F127 Pluronic® micelles as described above. […] […] Similar control experiments were set-up with equivalent concentrations of each Pluronic® micelle without JS-K. After a 3 day incubation, cell growth was measured using the MTS assay. […] Equivalent empty micelles at equal concentrations (0.08% w/v) had no significant effect on cell growth (not shown).

[3] = Effect on systemic blood pressure (tail cuff); format: in vivo, NOD/SCID and NOD/SCID IL2Rγ^null mice; details: 5 μmol/kg intravenous, awake mice, up to 2 hours
Source text: This example illustrates the effect of JS-K in Pluronic® micelles on systemic blood pressure. […] The proportion of JS-K to Pluronic® polymer in solution was 1.53% by weight.
Awake, unanesthetized NOD/SCID and NOD/SCID IL2Rγ^null mice were used for these experiments.

[4] = tested on: HL-60 cells; assay: In vivo anti-leukemic activity, HL-60 flank tumors; set-up: species or system NOD/SCID IL2Rγ^null mice; details: 4 μmol/kg intravenously 3 times per week; p=0.01 by F-test
Source text: This example illustrates the in vivo anti-leukemic activity of JS-K in Pluronic® micelles. NOD/SCID IL2Rγ^null mice were inoculated with 5×10^6 HL-60 cells in each flank. […] The proportion of JS-K to Pluronic® polymer in solution was 2.0% by weight. Injections were given 3 times per week intravenously. The dose of free and micelle-formulated JS-K was 4 μmol/kg. […] A linear mixed model using SAS PROC MIXED was fit to the data in FIG. 8, using a random effect to account for correlation among measurements within the same animal.

[5] = Stability in RPMI media with 10% Fetal Bovine Serum; format: in vitro ADME; details: RPMI/10% FBS, 37° C.; micelle 50, free 10 micromolar; average and SEM of 6
[6] = Stability in pooled human plasma; format: in vitro ADME; details: 37° C., micelle 50, free 10 micromolar, average and SEM of 2

- Percent retention of JS-K after dialysis [1]: 31%
- percent recovery after 60 minute incubation [5]: 10.53+/−1.42%
- percent recovery after 60 minute incubation [6]: 39+/−0%
Structure (SMILES): CCOC(=O)N1CCN(/[N+]([O-])=N/Oc2ccc([N+](=O)[O-])cc2[N+](=O)[O-])CC1 [free JS-K, O^2-(2,4-dinitrophenyl) 1-[(4-ethoxycarbonyl)piperazin-1-yl]diazen-1-ium-1,2-diolate]
- inhibition of leukemia cell growth ([2]; 0.5 μM, 3 day incubation, MTS, JS-K to polymer 4% by weight): 62%
- IC50 ([2]; JS-K to polymer 1.97% by weight): 450 nM
- sustained drop in systolic blood pressure [3]: around 20 % of baseline
- rate of tumor growth, free vs micelle JS-K (linear mixed model) [4]: significantly higher
